Test results from BigSolDB 2.1.

O=c1c(-c2ccc(O)cc2)coc2cc(O)cc(O)c12
solubility (mole fraction)
Details | 288.2 K | 293.2 K | 298.2 K | 303.2 K | 308.2 K | 313.2 K | 318.2 K | 323.2 K | 328.2 K
in acetone | 0.00477 | 0.00526 | 0.00607 | 0.007 | 0.00754 | 0.00805 | 0.00856 | 0.00879 | 0.0089
in chloroform | 2.41e-06 | 2.82e-06 | 3.22e-06 | 3.6e-06 | 3.99e-06 | 4.36e-06 | 4.51e-06 | 4.7e-06 | 4.74e-06
in ethyl acetate | 0.00183 | 0.0022 | 0.00241 | 0.00273 | 0.00335 | 0.00367 | 0.00413 | 0.00471 | 0.00539
in methanol | 0.000935 | 0.00127 | 0.00145 | 0.00163 | 0.00192 | 0.00212 | 0.00266 | 0.00323 | 0.00372
in n-hexane | 6.96e-06 | 8.12e-06 | 9e-06 | 1.01e-05 | 1.09e-05 | 1.14e-05 | 1.24e-05 | 1.3e-05 | 1.41e-05
in water | 4.72e-08 | 6.95e-08 | 8.46e-08 | 1.05e-07 | 1.25e-07 | 1.67e-07 | 1.99e-07 | 2.7e-07 | 3.68e-07
